According to patent US20150315241A1, “Antibiotic Peptides” (priority 2007, published 2015):
Values after ≈ are worked out from the molar mass of the structure shown. Read-outs that look alike come from different tables or passages of the source. Where a SMILES comes first, the peptide text is derived from it. [ ]: non-standard residue; d: D form. The star is where a group is joined. Guan = guanidino group added at N-terminus (guanidation), N=C(N)*; hArg = N=C(N)NCCCC[C@H](N)C(=O)O; Cha = N[C@@H](CC1CCCCC1)C(=O)O; NMeL = CN[C@@H](CC(C)C)C(=O)O; Agp = N=C(N)NC[C@H](N)C(=O)O; X1 = CN(C)C(=NCC(=O)*)N(C)C; Orn = NCCC[C@H](N)C(=O)O; OPr = CCCO*

What was measured:
[1] = system: M. luteus ATCC 10240; type: cell-based, Micrococcus luteus
Summary of the method: (§1)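 Two-fold serial dilution in 1% TSB, final 125 μg/mL to 60 ng/mL; inoculum 5×10^6 CFU/mL (before 1:1 mixing with peptide). Incubated 20 hrs at 37° C., growth read as absorbance at 595 nm, in triplicate with sterile water as negative control.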

[2] = system: B. subtilis 347; type: cell-based, Bactillus subtillis
Method: (§2) The minimal inhibition concentrations (MIC) of the apidaecin-derived peptides and peptide-derivatives were determined by a growth inhibition assay using a serial peptide dilution in sterilized round-bottom 96-well plates (polystyrene, U-bottom, Greiner Bio-One GmbH) with a final volume of 100 μL per well. The bacteria, e.g., E. coli BL21 A1, were grown in nutrient broth (NB, Carl Roth GmbH+Co. KG, Karlsruhe, Germany) at 37° C. over night. To each well of the 96-well plate, 50 μL of the overnight culture adjusted to 5×10^6 CFU/mL in 1% TSB were added. Lyophilized peptides and peptidomimetics were dissolved in 1% TSB (tryptic soy broth) or water to give a final concentration of 250 μg/mL. Fifty μL of the peptide or peptidomimetics solution were added to the first well of a row on the plate and mixed. Fifty μL of the first well containing the peptide solution were transferred to the second well, mixed and again 50 μL transferred to the next well and so on. Thereby, a two-fold dilution series was obtained starting at 250 μg/mL in the first well down to 120 ng/mL in the 12th well of a row giving a final peptide or peptidomimetics concentration from 125 μg/mL (well 1) to 60 ng/mL (well 12). Plates were incubated at 37° C. for 20 hrs. The absorbance was measured at 595 nm using a TECAN micro plate spectrophotometer (Tecan, Germany). All peptides and peptidomimetics were measured in triplicates. Sterilized water was used as a negative control.
(§3) The bacteria strains were tested: • Eschericha coli 1103, 10233, BL 21 AI, DC 2, • Klebsiella pneumoniae 681, • Micrococcus luteus ATCC 10240, • Mycobacterium vaccae • Bactillus subtillis 347.

[3] = system: E. coli 1103; type: cell-based, Escherichia coli
Method: as §2, §3

[4] = system: K. pneumonia 681; type: cell-based, Klebsiella pneumoniae
Method: as §2, §3

[5] = system: E. coli BL 21 AI; experiment: Growth inhibition assay (MIC); type: cell-based, Escherichia coli; details: 1% TSB, 37° C., 20 hrs
Summary of the method: as §1

[6] = system: K. Pneumonia 123132; experiment: Growth inhibition assay (MIC); type: cell-based, Klebsiella pneumoniae
Method: as §2
(§4) The following multidrug resistant bacteria strains were tested: • Eschericha coli 45849 and D31, • Klebsiella pneumoniae 123132 and K6, • Salmonella typhi S5 and Salmonella enterica subsp. enterica serovar Typhimurium (ATCC 700408), • Rhizobium radiobacter (ATCC 15955 deposited as Agrobacterium tumefaciens).

[7] = system: K. Pneumonia K6, ATCC 700603; experiment: Growth inhibition assay (MIC); type: cell-based, Klebsiella pneumoniae; details: multidrug resistant strain; 1% TSB, 37° C., 20 hrs
Method: as §2, §4

[8] = system: S. enterica subsp. Enterica serovar. typhi G10215 ATCC 700408; type: cell-based, Salmonella enterica; details: ATCC 700408, 20 h
Method: as §2, §4

[9] = system: S. typhi S5; type: cell-based, Salmonella typhi; details: S5, 20 h
Method: as §2, §4

[10] = system: E. coli 45849; experiment: Growth inhibition assay (MIC); type: cell-based, Escherichia coli
Method: as §2, §4

[11] = system: R. radiobatter ATCC 15955; experiment: Growth inhibition assay (MIC); type: cell-based, Rhizobium radiobacter
Method: as §2, §4

[12] = system: E. coli D31; type: cell-based, Escherichia coli; details: D31, 20 h
Method: as §2, §4

[13] = multidrug resistant strain, 1% TSB, 37° C., 20 hrs

Row | Compound | MIC E. coli BL 21 AI [5] | MIC K. Pneumonia 123132 [6, 13] | MIC K. Pneumonia K6, ATCC 700603 [7] | MIC S. enterica subsp. Enterica serovar. typhi G10215 ATCC 700408 [8] | MIC S. typhi S5 [9] | MIC E. coli 45849 [10, 13] | MIC R. radiobatter ATCC 15955 [11, 13] | MIC E. coli D31 [12] | further results
1 | 146 (Guan-[Orn]NNRPVYIPRPRPPHP[Agp]L-NH2) [compound 146] | 32 µg/mL |  |  |  |  |  |  |  | MIC M. luteus ATCC 10240 ([1]; 1% TSB, 37° C., 20 hrs): 4 µg/mL; MIC B. subtilis 347 ([2]; 1% TSB, 37° C., 20 hrs): 125 µg/mL; MIC E. coli 1103 ([3]; 1% TSB, 37° C., 20 hrs): 64 µg/mL; MIC K. pneumonia 681 ([4]; 1% TSB, 37° C., 20 hrs): 32 µg/mL
2 | 147 (Guan-[Orn]NNRPVYIPRPRPPHPRL-OPr) [compound 147] | 4 µg/mL |  |  |  |  |  |  |  | MIC M. luteus ATCC 10240 ([1]; 1% TSB, 37° C., 20 hrs): 16 µg/mL; MIC B. subtilis 347 ([2]; 1% TSB, 37° C., 20 hrs): 64 µg/mL; MIC E. coli 1103 ([3]; 1% TSB, 37° C., 20 hrs): 16 µg/mL; MIC K. pneumonia 681 ([4]; 1% TSB, 37° C., 20 hrs): 8 µg/mL
3 | CC[C@H](C)[C@H](NC(=O)[C@H](Cc1ccc(O)cc1)NC(=O)[C@@H](NC(=O)[C@@H]1CCCN1C(=O)[C@H](CCCNC(=N)N)NC(=O)[C@H](CC(N)=O)NC(=O)[C@H](CC(N)=O)NC(=O)CN)C(C)C)C(=O)N1CCC[C@H]1C(=O)N[C@@H](CCCNC(=N)N)C(=O)N1CCC[C@H]1C(=O)N[C@@H](CCCNC(=N)N)C(=O)N1CCC[C@H]1C(=O)N1CCC[C@H]1C(=O)N[C@@H](Cc1c[nH]cn1)C(=O)N1CCC[C@H]1C(=O)N[C@@H](CCCNC(=N)N)C(=O)N(C)[C@@H](CC(C)C)C(N)=O [compound 34] (H-GNNRPVYIPRPRPPHPR[NMeL]-NH2) |  | 32 µg/mL (≈ 14.9 µM) | 32 µg/mL (≈ 14.9 µM) | 4 to 8 µg/mL | 8 µg/mL (≈ 3.72 µM) | 4 µg/mL (≈ 1.86 µM) | 1.3 µg/mL (≈ 0.605 µM) | 8 µg/mL (≈ 3.72 µM) | 
4 | CC[C@H](C)[C@H](NC(=O)[C@H](Cc1ccc(O)cc1)NC(=O)[C@@H](NC(=O)[C@@H]1CCCN1C(=O)[C@H](CCCNC(=N)N)NC(=O)[C@H](CC(N)=O)NC(=O)[C@H](CC(N)=O)NC(=O)[C@@H](N)CCCN)C(C)C)C(=O)N1CCC[C@H]1C(=O)N[C@@H](CCCN)C(=O)N1CCC[C@H]1C(=O)N[C@@H](CCCNC(=N)N)C(=O)N1CCC[C@H]1C(=O)N1CCC[C@H]1C(=O)N[C@@H](Cc1c[nH]cn1)C(=O)N1CCC[C@H]1C(=O)N[C@@H](CCCNC(=N)N)C(=O)N[C@@H](CC1CCCCC1)C(N)=O [compound 35] (H-[Orn]NNRPVYIP[Orn]PRPPHPR[Cha]-NH2) |  |  | 16 µg/mL (≈ 7.3 µM) | 4 to 8 µg/mL | 16 µg/mL (≈ 7.3 µM) |  |  | 8 µg/mL (≈ 3.65 µM) | MIC K. Pneumonia 123132 ([6]; 20 h): 32 µg/mL (≈ 14.6 µM); MIC E. coli 45849 ([10]; 45849, 20 h): 16 µg/mL (≈ 7.3 µM); MIC R. radiobatter ATCC 15955 ([11]; ATCC 15955, 20 h): 2.6 µg/mL (≈ 1.19 µM)
5 | CC[C@H](C)[C@H](NC(=O)[C@H](Cc1ccc(O)cc1)NC(=O)[C@@H](NC(=O)[C@@H]1CCCN1C(=O)[C@H](CCCNC(=N)N)NC(=O)[C@H](CC(N)=O)NC(=O)[C@H](CC(N)=O)NC(=O)[C@H](CCCN)NC(C)=O)C(C)C)C(=O)N1CCC[C@H]1C(=O)N[C@@H](CCCNC(=N)N)C(=O)N1CCC[C@H]1C(=O)N[C@@H](CCCNC(=N)N)C(=O)N1CCC[C@H]1C(=O)N1CCC[C@H]1C(=O)N[C@@H](Cc1c[nH]cn1)C(=O)N1CCC[C@H]1C(=O)N[C@@H](CCCNC(=N)N)C(=O)N(C)[C@@H](CC(C)C)C(N)=O [compound 36] (Ac-[Orn]NNRPVYIPRPRPPHPR[NMeL]-NH2) |  | 32 µg/mL (≈ 14.2 µM) | 64 to 128 µg/mL | 4 to 8 µg/mL | 16 to 32 µg/mL | 4 µg/mL (≈ 1.78 µM) | 1.3 µg/mL (≈ 0.578 µM) | 8 µg/mL (≈ 3.56 µM) | 
6 | CC[C@H](C)[C@H](NC(=O)[C@H](Cc1ccc(O)cc1)NC(=O)[C@@H](NC(=O)[C@@H]1CCCN1C(=O)[C@H](CCCNC(=N)N)NC(=O)[C@H](CC(N)=O)NC(=O)[C@H](CC(N)=O)NC(=O)CN)C(C)C)C(=O)N1CCC[C@H]1C(=O)N[C@@H](CCCNC(=N)N)C(=O)N1CCC[C@H]1C(=O)N[C@@H](CCCNC(=N)N)C(=O)N1CCC[C@H]1C(=O)N1CCC[C@H]1C(=O)N[C@@H](Cc1c[nH]cn1)C(=O)N1CCC[C@H]1C(=O)N[C@@H](CCCNC(=N)N)C(=O)N[C@@H](CC1CCCCC1)C(N)=O [compound 37] (H-GNNRPVYIPRPRPPHPR[Cha]-NH2) |  | 16 µg/mL (≈ 7.35 µM) | 32 µg/mL (≈ 14.7 µM) | 8 µg/mL (≈ 3.68 µM) | 16 µg/mL (≈ 7.35 µM) | 16 µg/mL (≈ 7.35 µM) | 10.5 µg/mL (≈ 4.83 µM) | 8 µg/mL (≈ 3.68 µM) | 
7 | CC[C@H](C)[C@H](NC(=O)[C@H](Cc1ccc(O)cc1)NC(=O)[C@@H](NC(=O)[C@@H]1CCCN1C(=O)[C@H](CCCNC(=N)N)NC(=O)[C@H](CC(N)=O)NC(=O)[C@H](CC(N)=O)NC(=O)[C@H](CCCN)NC(C)=O)C(C)C)C(=O)N1CCC[C@H]1C(=O)N[C@@H](CCC(N)=O)C(=O)N1CCC[C@H]1C(=O)N[C@@H](CCCNC(=N)N)C(=O)N1CCC[C@H]1C(=O)N1CCC[C@H]1C(=O)N[C@@H](Cc1c[nH]cn1)C(=O)N1CCC[C@H]1C(=O)N[C@@H](CCCNC(=N)N)C(=O)N[C@@H](Cc1ccccc1)C(N)=O [compound 41] (Ac-[Orn]NNRPVYIPQPRPPHPRF-NH2) |  | 32 µg/mL (≈ 14.3 µM) | 128 µg/mL (≈ 57.1 µM) | 8 µg/mL (≈ 3.57 µM) | 8 µg/mL (≈ 3.57 µM) | 4 µg/mL (≈ 1.79 µM) | 5.25 µg/mL (≈ 2.34 µM) | >128 µg/mL | 
8 | CC[C@H](C)[C@H](NC(=O)[C@H](Cc1ccc(O)cc1)NC(=O)[C@@H](NC(=O)[C@@H]1CCCN1C(=O)[C@H](CCCNC(=N)N)NC(=O)[C@H](CC(N)=O)NC(=O)[C@H](CC(N)=O)NC(=O)CNC(C)=O)C(C)C)C(=O)N1CCC[C@H]1C(=O)N[C@@H](CCC(N)=O)C(=O)N1CCC[C@H]1C(=O)N[C@@H](CCCNC(=N)N)C(=O)N1CCC[C@H]1C(=O)N1CCC[C@H]1C(=O)N[C@@H](Cc1c[nH]cn1)C(=O)N1CCC[C@H]1C(=O)N[C@@H](CCCCNC(=N)N)C(=O)N[C@@H](CC(C)C)C(N)=O [compound 132] (Ac-GNNRPVYIPQPRPPHP[hArg]L-NH2) | 32 µg/mL (≈ 14.8 µM) |  |  |  |  |  |  |  | MIC M. luteus ATCC 10240 ([1]; ATCC 10240, 20 h): 32 µg/mL (≈ 14.8 µM); MIC B. subtilis 347 ([2]; 347, 20 h): 128 µg/mL (≈ 59.2 µM); MIC E. coli 1103 ([3]; 1103, 20 h): 64 µg/mL (≈ 29.6 µM); MIC K. pneumonia 681 ([4]; 20 h): 32 µg/mL (≈ 14.8 µM)
9 | CC[C@H](C)[C@H](NC(=O)[C@H](Cc1ccc(O)cc1)NC(=O)[C@@H](NC(=O)[C@@H]1CCCN1C(=O)[C@H](CCCNC(=N)N)NC(=O)[C@H](CC(N)=O)NC(=O)[C@H](CC(N)=O)NC(=O)CN=C(N(C)C)N(C)C)C(C)C)C(=O)N1CCC[C@H]1C(=O)N[C@@H](CCC(N)=O)C(=O)N1CCC[C@H]1C(=O)N[C@@H](CCCNC(=N)N)C(=O)N1CCC[C@H]1C(=O)N1CCC[C@H]1C(=O)N[C@@H](Cc1c[nH]cn1)C(=O)N1CCC[C@H]1C(=O)N[C@@H](CCCCNC(=N)N)C(=O)N[C@@H](CC(C)C)C(N)=O [compound 133] (X1-NNRPVYIPQPRPPHP[hArg]L-NH2; N-terminus and C-terminus assumed) |  |  |  | 2 µg/mL (≈ 0.901 µM) | 16 µg/mL (≈ 7.21 µM) |  |  | 16 µg/mL (≈ 7.21 µM) | MIC M. luteus ATCC 10240 ([1]; ATCC 10240, 20 h): 32 µg/mL (≈ 14.4 µM); MIC E. coli 1103 ([3]; 1103, 20 h): 16 µg/mL (≈ 7.21 µM); MIC K. pneumonia 681 ([4]; 20 h): 8 µg/mL (≈ 3.6 µM)
